According to PubChem BioAssay AID248 (DTP/NCI, 2004):
“And” between values parts separate entries of the source, which are not always exact repeats. Equal values may be shown once. Inconclusive results and toxic doses are left out. Rule as the data show it: active = T/C of 150% or more; inactive = T/C below 125%.

Test system: L1210 leukemia ip in BDF1 mice, survival T/C
Experiment: NCI In Vivo Anticancer Drug Screen. Data for tumor model L1210 Leukemia (intraperitoneal) in B6D2F1 (BDF1) mice
Conditions: endpoint: mean survival time, higher = longer survival
Summary of the method: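 Each compound was tested against a transplantable tumor grown in mice. The endpoint was survival, with treated animals benchmarked against vehicle controls as a simple ratio.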

[1] = dose: 100.0 mg/kg/injection, schedule: Q01DX009 (ip), vehicle: saline with Tween-80
[2] = dose: 200.0 mg/kg/injection, schedule: Q01DX009 (ip), vehicle: saline with Tween-80
[3] = dose: 100.0 mg/kg/injection, schedule: Q04DX003 (ip), vehicle: saline
[4] = dose: 200.0 mg/kg/injection, schedule: Q04DX003 (ip), vehicle: saline
[5] = dose: 400.0 mg/kg/injection, schedule: Q04DX003 (ip), vehicle: saline
[6] = dose: 100.0 mg/kg/injection, schedule: Q01DX009 (ip), vehicle: Klucel (hydroxypropylcellulose) (HPC)
[7] = dose: 200.0 mg/kg/injection, schedule: Q01DX009 (ip), vehicle: Klucel (hydroxypropylcellulose) (HPC)
[8] = dose: 400.0 mg/kg/injection, schedule: Q01DX009 (ip), vehicle: Klucel (hydroxypropylcellulose) (HPC)
[9] = dose: 100.0 mg/kg/injection, schedule: Q04DX002 (ip), vehicle: Klucel (hydroxypropylcellulose) (HPC)
[10] = dose: 200.0 mg/kg/injection, schedule: Q04DX002 (ip), vehicle: Klucel (hydroxypropylcellulose) (HPC)
[11] = dose: 400.0 mg/kg/injection, schedule: Q04DX002 (ip), vehicle: Klucel (hydroxypropylcellulose) (HPC)
[12] = dose: 100.0 mg/kg/injection, schedule: Q01DX001 (ip), vehicle: saline with Tween-80
[13] = dose: 200.0 mg/kg/injection, schedule: Q01DX001 (ip), vehicle: saline with Tween-80
[14] = dose: 400.0 mg/kg/injection, schedule: Q01DX001 (ip), vehicle: saline with Tween-80
[15] = dose: 100.0 mg/kg/injection, schedule: Q01DX001 (ip), vehicle: saline
[16] = dose: 200.0 mg/kg/injection, schedule: Q01DX001 (ip), vehicle: saline
[17] = dose: 400.0 mg/kg/injection, schedule: Q01DX001 (ip), vehicle: saline

Measured: T/C

CC(=O)OC1C=CCC2C(=O)C3=C(C(=O)c4ccccc4C3=O)C(=O)C12 (stereo not given)
inactive: dose: 0.25 mg/kg/injection, schedule: Q04DX003 (ip), vehicle: saline with Tween-80 93 % of control | dose: 0.5 mg/kg/injection, schedule: Q04DX003 (ip), vehicle: saline with Tween-80 93 % of control | dose: 1.0 mg/kg/injection, schedule: Q04DX003 (ip), vehicle: saline with Tween-80 89 % of control | dose: 2.0 mg/kg/injection, schedule: Q04DX003 (ip), vehicle: saline with Tween-80 97 % of control | dose: 4.0 mg/kg/injection, schedule: Q04DX003 (ip), vehicle: saline with Tween-80 107 % of control | dose: 6.0 mg/kg/injection, schedule: Q04DX003 (ip), vehicle: saline with Tween-80 103 % of control | dose: 8.0 mg/kg/injection, schedule: Q04DX003 (ip), vehicle: saline with Tween-80 98 % of control | dose: 12.0 mg/kg/injection, schedule: Q04DX003 (ip), vehicle: saline with Tween-80 97 % of control | dose: 16.0 mg/kg/injection, schedule: Q04DX003 (ip), vehicle: saline with Tween-80 98 % of control | dose: 24.0 mg/kg/injection, schedule: Q04DX003 (ip), vehicle: saline with Tween-80 97 % of control | dose: 32.0 mg/kg/injection, schedule: Q04DX003 (ip), vehicle: saline with Tween-80 104 % of control | dose: 48.0 mg/kg/injection, schedule: Q04DX003 (ip), vehicle: saline with Tween-80 97 % of control | dose: 64.0 mg/kg/injection, schedule: Q04DX003 (ip), vehicle: saline with Tween-80 100 % of control | dose: 128.0 mg/kg/injection, schedule: Q04DX003 (ip), vehicle: saline with Tween-80 100 % of control

Cc1ccc(S(=O)(=O)Nc2ccc(Nc3ccccc3)cc2)cc1
inactive: dose: 50.0 mg/kg/injection, schedule: Q01DX009 (ip), vehicle: saline with Tween-80 94 % of control | [1] 94 % of control | [2] 102 % of control

Nc1ccc(CCO)cc1
inactive: [3] 105 % of control | [4] 96 % of control | [5] 96 % of control

CCCCCCCCCCCCCCCC(=O)O
inactive: [6] 100 % of control | dose: 100.0 mg/kg/injection, schedule: Q04DX003 (ip), vehicle: Klucel (hydroxypropylcellulose) (HPC) 98 % of control | [7] 92 % of control | dose: 200.0 mg/kg/injection, schedule: Q04DX003 (ip), vehicle: Klucel (hydroxypropylcellulose) (HPC) 98 % of control | [8] 97 % of control | dose: 400.0 mg/kg/injection, schedule: Q04DX003 (ip), vehicle: Klucel (hydroxypropylcellulose) (HPC) 97 % of control

Nc1nc(I)c2[nH]cnc2n1
inactive: dose: 25.0 mg/kg/injection, schedule: Q01DX Z (ip), vehicle: methylcellulose (MC) 95 % of control | dose: 50.0 mg/kg/injection, schedule: Q01DX Z (ip), vehicle: methylcellulose (MC) 103 % of control | dose: 100.0 mg/kg/injection, schedule: Q01DX Z (ip), vehicle: methylcellulose (MC) 108 % of control

CN(C)c1ccc(C2OC3(CCCCC3)C[N+]23CCCC3)cc1 (stereo not given)
inactive: dose: 100.0 mg/kg/injection, schedule: Q04DX003 (ip), vehicle: acetone 102 % of control

COc1ccccc1NC(=O)c1cc2ccccc2cc1O
inactive: dose: 100.0 mg/kg/injection, schedule: Q01DX009 (ip), vehicle: saline 109 % of control | [3] 100 % of control | dose: 200.0 mg/kg/injection, schedule: Q01DX009 (ip), vehicle: saline 104 % of control | [4] 100 % of control | dose: 400.0 mg/kg/injection, schedule: Q01DX009 (ip), vehicle: saline 100 % of control | [5] 98 % of control

Cc1ccc2c3nc4ccccc4c-3csc2c1
inactive: dose: 6.25 mg/kg/injection, schedule: Q01DX009 (ip), vehicle: saline 103 % of control | dose: 12.5 mg/kg/injection, schedule: Q01DX009 (ip), vehicle: saline 108 % of control and 103 % of control | dose: 12.5 mg/kg/injection, schedule: Q04DX003 (ip), vehicle: saline 93 % of control and 92 % of control | dose: 25.0 mg/kg/injection, schedule: Q01DX009 (ip), vehicle: saline 98 % of control and 93 % of control | dose: 25.0 mg/kg/injection, schedule: Q04DX003 (ip), vehicle: saline 93 % of control and 90 % of control | dose: 35.0 mg/kg/injection, schedule: Q01DX009 (ip), vehicle: saline 101 % of control and 86 % of control | dose: 50.0 mg/kg/injection, schedule: Q04DX003 (ip), vehicle: saline 87 % of control | dose: 55.0 mg/kg/injection, schedule: Q01DX009 (ip), vehicle: saline 93 % of control and 92 % of control

O=[N+]([O-])c1ccc(-n2ccnc2)c([N+](=O)[O-])c1
inactive: [9] 100 % of control | [10] 100 % of control | [11] 93 % of control

CC(C)(C)C1CCC2OC(C)(C(C)(C)C)CC(C(C)(C)C)C2C1 (stereo not given)
inactive: [12] 100 % of control | [13] 100 % of control | [14] 95 % of control

O=C(O)CCCN1C/C(=C\c2ccccc2)C(=O)C1=O
inactive: [3] 104 % of control | [4] 101 % of control | [5] 98 % of control

CC(C)C1(C(C)C)NC(=O)NC1=O
inactive: dose: 100.0 mg/kg/injection, schedule: Q01DX001 (ip), vehicle: other 98 % of control | dose: 100.0 mg/kg/injection, schedule: Q01DX009 (ip), vehicle: other 101 % of control | dose: 100.0 mg/kg/injection, schedule: Q04DX003 (ip), vehicle: other 102 % of control | dose: 200.0 mg/kg/injection, schedule: Q01DX001 (ip), vehicle: other 98 % of control | dose: 200.0 mg/kg/injection, schedule: Q01DX009 (ip), vehicle: other 106 % of control | dose: 200.0 mg/kg/injection, schedule: Q04DX003 (ip), vehicle: other 98 % of control | dose: 400.0 mg/kg/injection, schedule: Q01DX001 (ip), vehicle: other 106 % of control | dose: 400.0 mg/kg/injection, schedule: Q01DX009 (ip), vehicle: other 107 % of control | dose: 400.0 mg/kg/injection, schedule: Q04DX003 (ip), vehicle: other 100 % of control

O=C(Nc1ccc2c(c1)C(=O)c1ccccc1-2)c1ccccc1
inactive: [12] 88 % of control | [13] 88 % of control | [14] 88 % of control

CCOC(=O)CNc1cccc(I)c1
inactive: [9] 110 % of control | [10] 100 % of control | [11] 104 % of control

CCCCCCCCCCCCc1c(C(OC)OC)[nH]c(=S)[nH]c1=O
inactive: [1] 94 % of control | dose: 100.0 mg/kg/injection, schedule: Q04DX003 (ip), vehicle: saline with Tween-80 98 % of control | [2] 100 % of control | dose: 200.0 mg/kg/injection, schedule: Q04DX003 (ip), vehicle: saline with Tween-80 96 % of control | dose: 400.0 mg/kg/injection, schedule: Q01DX009 (ip), vehicle: saline with Tween-80 103 % of control | dose: 400.0 mg/kg/injection, schedule: Q04DX003 (ip), vehicle: saline with Tween-80 93 % of control

Cc1ccc(C(C)C)c(OC(=O)Nc2ccc(S(=O)(=O)NC3CCCCC3)cc2)c1
inactive: [15] 94 % of control | [16] 96 % of control | [17] 94 % of control

CC(C)CCC1=C(O)c2ccccc2C(=O)C1=O
inactive: dose: 30.0 mg/kg/injection, schedule: Q01DX015 (ip), vehicle: water 100 % of control | dose: 35.0 mg/kg/injection, schedule: Q01DX015 (ip), vehicle: water 106 % of control | dose: 45.0 mg/kg/injection, schedule: Q01DX015 (ip), vehicle: water 95 % of control | dose: 70.0 mg/kg/injection, schedule: Q01DX015 (ip), vehicle: water 103 % of control

CC(=O)Nc1ccc(SS(=O)(=O)c2ccc(NC(C)=O)cc2)cc1
inactive: [15] 95 % of control | [16] 101 % of control | [17] 101 % of control

COc1cc(Cl)ccc1NC(=O)Oc1cccc2ccccc12
inactive: [6] 89 % of control | [7] 101 % of control | [8] 95 % of control

CN(C)C(=O)C(OCc1ccccc1)C(OCc1ccccc1)C(OCc1ccccc1)C(O)COCc1ccccc1 (stereo not given)
inactive: dose: 50.0 mg/kg/injection, schedule: Q01DX009 (ip), vehicle: Klucel (hydroxypropylcellulose) (HPC) 88 % of control | [6] 96 % of control | [7] 100 % of control
